These results are taken from PMC10180155, “Thieno-Thiazolostilbenes, Thienobenzo-Thiazoles, and Naphtho-Oxazoles: Computational Study and Cholinesterase Inhibitory Activity” (Molecules, 2023).

A word on the inhibition: it is the percentage by which the read-out fell short of the control. What is called IC50 is the point on the concentration scale where inhibition reaches its midpoint. High values mean a need for much substance, low ones inhibition by little substance. A word on the pIC50: it is the IC50 on a negative log10 scale, so that one unit is a factor of ten. Higher therefore signals a small IC50.

Series [1] deals with T1, BChE (EC 3.1.1.8, equine serum) (Equus caballus, UniProt P81908).
T1 construct: BChE (EC 3.1.1.8, equine serum); purchased Sigma-Aldrich; host or cells: equine serum
In words: biochemical. The note with it: for Inhibition (%) BChE: concentration for the maximal effect measured. In kind it is biochemical. How it is done:
(§1) AChE and BChE inhibition were determined using a modified spectrophotometric Ellman’s method. Acetylthiocholine iodide (ATChI), S-butyrylthiocholine iodide (BTChI), AChE (EC 3.1.1.7, Electrophorus electricus, Type: V-S), BChE (EC 3.1.1.8, equine serum), and Trisma base were purchased from Sigma-Aldrich (St. Louis, MO, USA), while Ellman’s reagent 5,50-dithiobis-(2-nitrobenzoic acid) (DTNB) was purchased from Zwijndrecht (Antwerpen, Belgium). The reaction mixture contained 180 µL Tris-HCl buffer (50 mM, pH 8.0) or phosphate buffer, 10 µL of the enzyme (final concentration 0.03 U/mL), 10 µL of the tested solution, and 10 μL of DTNB (final concentration 0.3 mM). The reaction started with adding 10 μL of ATChI/BTChI (final concentration of 0.5 mM). The developing yellow color was measured at 405 nm over 6 min at room temperature using a 96-well microplate reader (IRE 96, SFRI Medical Diagnostics, Bordeaux, France). The experiment was run in triplicate. The percentage of enzyme inhibition was calculated from measured data according to the equation: Inhibition (%) = [(Ac − AT)/A.C.]∙100, where A.C. is the enzyme activity without the test sample, and AT is the enzyme activity with the test sample, calculated as mean values ± standard deviation. In the control measurement, the tested compound was replaced by a buffer solution. Non-enzymatic hydrolysis was measured as blank for each measurement. The IC50 value was calculated by a nonlinear fit of compound concentration (log) values vs. response.

The target in series [2] is T2, AChE (EC 3.1.1.7, Electrophorus electricus, Type: V-S) (Electrophorus electricus, UniProt O42275).
T2 construct: purchased Sigma-Aldrich Type: V-S
As to the kind of experiment: AChE inhibition, modified spectrophotometric Ellman's method. In kind it is biochemical. How it is done:
as §1, with “The experiment was run in triplicate.” left out, “In the control measurement, the tested compound was replaced by a buffer solution.” left out
In general terms: DTNB colorimetry detects thiols as they appear.

A short description of series [3]: Solubility as observed in the cholinesterase measurements. In kind it is physicochemical. Particulars: did not allow measurements at higher concentrations. The source says:
Tested compounds were active only toward BChE, and the results are presented in Table 2 and Figure 8 and Figure 9. Among stilbene derivatives, the best result is achieved by the derivative with a phenolic ring trans-8a and the thiophene derivative trans-1a (Table 2, Figure 9). […] Replacement of phenol from trans-8a with thiophene in trans-1a reduces the IC50 value by seven times. Replacing the methyl group from trans-1a with an isopropyl group in trans-2a (along with the inversion of the sulfur and nitrogen position) also reduces the activity. Furthermore, a change in geometry from trans-1a to cis-1a also diminished inhibitory activity, as was observed earlier.

pIC50: −log10 of the molar value.

T1 sequence (P81908 whole entry): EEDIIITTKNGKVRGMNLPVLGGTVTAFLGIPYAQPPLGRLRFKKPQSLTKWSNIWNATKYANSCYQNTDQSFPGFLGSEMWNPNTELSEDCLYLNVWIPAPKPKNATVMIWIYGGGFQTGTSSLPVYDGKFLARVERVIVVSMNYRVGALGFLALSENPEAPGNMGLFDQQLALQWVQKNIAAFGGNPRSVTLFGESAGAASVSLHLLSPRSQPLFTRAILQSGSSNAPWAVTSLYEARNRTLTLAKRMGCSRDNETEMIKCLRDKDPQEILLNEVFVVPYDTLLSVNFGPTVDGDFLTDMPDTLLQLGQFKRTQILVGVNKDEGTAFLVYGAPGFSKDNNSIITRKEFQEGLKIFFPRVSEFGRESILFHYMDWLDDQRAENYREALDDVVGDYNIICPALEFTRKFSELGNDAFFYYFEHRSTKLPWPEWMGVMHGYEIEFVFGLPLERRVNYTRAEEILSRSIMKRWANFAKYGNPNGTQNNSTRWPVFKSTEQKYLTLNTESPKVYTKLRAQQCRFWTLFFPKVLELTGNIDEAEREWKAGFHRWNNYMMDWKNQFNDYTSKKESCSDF
T2 sequence (O42275 24-633): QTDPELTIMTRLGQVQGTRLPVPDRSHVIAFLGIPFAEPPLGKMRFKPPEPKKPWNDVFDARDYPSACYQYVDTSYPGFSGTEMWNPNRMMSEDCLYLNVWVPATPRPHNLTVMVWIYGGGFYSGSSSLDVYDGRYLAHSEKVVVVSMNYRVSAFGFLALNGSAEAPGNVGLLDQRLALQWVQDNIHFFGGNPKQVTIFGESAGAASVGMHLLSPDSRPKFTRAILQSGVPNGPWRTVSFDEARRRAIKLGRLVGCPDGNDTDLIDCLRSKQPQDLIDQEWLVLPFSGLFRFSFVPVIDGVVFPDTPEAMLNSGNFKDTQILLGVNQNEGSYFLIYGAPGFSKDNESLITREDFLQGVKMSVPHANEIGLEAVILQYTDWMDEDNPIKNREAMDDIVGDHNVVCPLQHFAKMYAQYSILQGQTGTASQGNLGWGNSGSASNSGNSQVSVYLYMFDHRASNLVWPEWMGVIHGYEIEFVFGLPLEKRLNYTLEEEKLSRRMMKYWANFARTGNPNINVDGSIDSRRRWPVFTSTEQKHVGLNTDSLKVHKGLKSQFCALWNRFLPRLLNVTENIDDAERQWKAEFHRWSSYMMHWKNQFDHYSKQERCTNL

As for `CC(=O)Nc1ncc(C=Cc2cccs2)s1` (mixture of isomers) [Compound 5a, N-(5-(2-(thiophen-2-yl)vinyl)thiazol-2-yl)acetamide], in series [1], the “inhibitory activity toward BChE (in words)” value is on record as “ineffective inhibitors”. In addition, in series [1] (read-out: Inhibition (%) BChE), the inhibition at 250 µM came out at 30.6%.

Molecule `Cc1nc2c(ccc3sccc32)s1` [Compound 1, 2-methylthieno[2′,3′:5,6]benzo[1,2-d]thiazole] gave a half-inhibitory concentration (IC50) in series [1] of 107 µM. Further, the inhibition at 500 µM in series [1] (read-out: Inhibition (%) BChE) amounted to 79.1%.

As for `CC(C)c1nc2ccc3sccc3c2s1` [Compound 2, 2-isopropylthieno[3′,2′:3,4]benzo[1,2-d]thiazole], the inhibition at 200 µM in series [1] (read-out: Inhibition (%) BChE) was 46.8%.

In the case of `Clc1nc2c(ccc3sccc32)s1` [Compound 3, 2-chlorothieno[2′,3′:5,6]benzo[1,2-d]thiazole], the IC50 in series [1] stood at 51.1 µM. The inhibition at 250 µM in series [1] (read-out: Inhibition (%) BChE) was 75.4%.

Take `FC(F)(F)c1nc2c(ccc3sccc32)s1` [Compound 4, 2-(trifluoromethyl)thieno[2′,3′:5,6]benzo[1,2-d]thiazole]: half-maximal inhibition in series [1] (IC50) required 41.9 µM. The inhibition at 200 µM in series [1] (read-out: Inhibition (%) BChE) worked out at 70.8%.

As to `CC(=O)Nc1nc2c(ccc3sccc32)s1` [Compound 5, N-(thieno[2′,3′:5,6]benzo[1,2-d]thiazol-2-yl)acetamide], the inhibition at 250 µM in series [1] (read-out: Inhibition (%) BChE) was determined as 24.9%.

For `c1ccc2c(c1)ccc1ncoc12` [Compound 11], the inhibition at 188 µM in series [1] (read-out: Inhibition (%) BChE) turned out to be 0.9%.

With `N#Cc1cccc2c1ccc1ncoc12` [Compound 12], the inhibition at 176 µM in series [1] (read-out: Inhibition (%) BChE) came to 40.9%.

For `Cc1cccc2c1ccc1ncoc12` [Compound 13], in series [1], the IC50 is 351 µM. In addition, in series [1] (read-out: Inhibition (%) BChE), the inhibition at 396.8 µM came to 57.8%.

Consider `Cc1ccc2ccc3ncoc3c2c1` [Compound 14], for which, in series [1], the concentration for half-maximal inhibition (IC50) was 155 µM. In series [1] (read-out: Inhibition (%) BChE), the inhibition at 173.6 µM amounted to 63.3%.

On to `Cc1ccc2ccc3nc(C)oc3c2c1` [Compound 15], for which, in series [1], the midpoint of inhibition, the IC50, lay at 44.4 µM. In addition, in series [1] (read-out: Inhibition (%) BChE), the inhibition at 368.6 µM was found to be 98.3%.

As for `O=[N+]([O-])c1ccc2ccc3ncoc3c2c1` [Compound 16], the half-inhibitory concentration (IC50) in series [1] was 137 µM. The inhibition at 201.7 µM in series [1] (read-out: Inhibition (%) BChE) was determined as 64.9%; in series [2] (read-out: % of inhibition AChE) it was 63.8%. The pIC50 in series [2] is 3.88.

For `Cc1nc2ccc3ccc([N+](=O)[O-])cc3c2o1` [Compound 17], the inhibition at 159.5 µM in series [1] (read-out: Inhibition (%) BChE) was determined as 16.8%.

In the case of `COc1ccc2ccc3ncoc3c2c1` [Compound 18], in series [1] (read-out: Inhibition (%) BChE), the inhibition at 273.6 µM came out at 38%.

Turning to `COc1ccc2ccc3nc(C)oc3c2c1` [Compound 19], the half-maximal inhibitory concentration (IC50) in series [1] is 170 µM. In addition, the inhibition at 405.2 µM in series [1] (read-out: Inhibition (%) BChE) was 81.9%.

For `CN(C)c1ccc2ccc3ocnc3c2c1` [Compound 20], half-maximal inhibition in series [1] (IC50) was put at 184 µM. Further, the inhibition at 364.2 µM in series [1] (read-out: Inhibition (%) BChE) is 82.2%.

`Clc1ccc2ccc3ocnc3c2c1` [Compound 21]: the inhibition at 312.3 µM in series [1] (read-out: Inhibition (%) BChE) is 32.6%.

`Fc1ccc2ccc3ocnc3c2c1` [Compound 22]: half-maximal inhibition in series [1] (IC50) was put at 128 µM. Also, the inhibition at 315.8 µM in series [1] (read-out: Inhibition (%) BChE) is 69.9%.

On to `Cc1cccc2c1ccc1ocnc12` [Compound 23], for which the inhibition at 297.5 µM in series [1] (read-out: Inhibition (%) BChE) amounted to 20.6%.

For the molecule `Clc1ncc(/C=C/c2cccs2)s1` [trans-3a, (E)-2-chloro-5-(2-(thiophen-2-yl)vinyl)thiazole], in series [1], the “inhibitory activity toward BChE (in words)” value is on record as “ineffective inhibitors”. The inhibition at 250 µM in series [1] (read-out: Inhibition (%) BChE) amounted to 10%.

As for `CCC(C)Nc1ncc(/C=C/c2cccs2)s1` (stereo not drawn) [trans-9a, (E)-N-(sec-butyl)-5-(2-(thiophen-2-yl)vinyl)thiazol-2-amine], the inhibition at 100 µM in series [1] (read-out: Inhibition (%) BChE) amounted to 47.7%. For the same molecule, the “solubility (in words)” value in series [3] was “limited solubility”.

For the molecule `Clc1nc(N2CCCC2)sc1/C=C/c1cccs1` [trans-10a, (E)-4-chloro-2-(pyrrolidin-1-yl)-5-(2-(thiophen-2-yl)vinyl)thiazole], in series [1] (read-out: Inhibition (%) BChE), the inhibition at 100 µM came to 25.3%. The “solubility (in words)” value in series [3] was “limited solubility”.

In turn, “(E)-2-(2-(2-methylthiazol-5-yl)vinyl)phenol [trans-8a]” showed an IC50 in series [1] of 25.2 µM. Also, the “Inhibition (%) BChE” value in series [1] (250 μM) was 80.5 (250) %.

As for “(E)-2-isopropyl-5-(2-(thiophen-2-yl)vinyl)thiazole [trans-2a]”, in series [1] (250 μM), the “Inhibition (%) BChE” value is listed as 45.8 (250) %.

“(E)-2-methyl-5-(2-(thiophen-2-yl)vinyl)thiazole [trans-1a]”: the IC50 in series [1] amounted to 181 µM. In series [1] (500 μM), the “Inhibition (%) BChE” value is on record as 64.0 (500) %.

On to “(Z)-2-isopropyl-5-(2-(thiophen-2-yl)vinyl)thiazole [cis-2a]”, for which the “Inhibition (%) BChE” value in series [1] (250 μM) is recorded as 45.5 (250) %.

As for “(Z)-2-methyl-5-(2-(thiophen-2-yl)vinyl)thiazole [cis-1a]”, the “inhibitory activity toward BChE (in words)” value in series [1] is “ineffective inhibitors”. Also, the “Inhibition (%) BChE” value in series [1] (500 μM) was 36.4 (500) %.
